Holding throughout (format): in vivo
Assay [1] has as its system HT-29 human colon adenocarcinoma cells. As to the kind of experiment: Tumor volume / TGI in HT-29 tumor-bearing mice. Particulars: for TGI (tumor growth inhibition rate): HT-29 mice, 5-FU 50 mg/kg QW. As for the experimental part: (§1) Immunocompromised, Nu/Nu, Female athymic nu/nu (nude) mice (ages 5-6 weeks, LASCO) were purchased from LASCO. Animals were housed in individual HEPA ventilated cages (Innocage® IVC, Innovive USA) housed for stabilization. Fluorescent lighting was provided on a 12-hour cycle under temperature (20-23° C.) and humidity control (30-70%). Rodent feed and water were provided ad libitum.
HT-29 human colon adenocarcinoma cells (2×10^7) in PBS buffer were implanted subcutaneously on the right flank of each mouse. Once tumors were detectable, palpable and measurable, the primary tumor volumes were measured and recorded every 3 or 4 days. Tumor volume was calculated as ½(4π/3)(L/2)(W/2)H, where L is the length, W is the width, and H is the height of the tumor. […] Subjects were terminated from the study when the tumor volume reached approximately 1500 mm^3 or the body weight loss was greater than 20% (IACUC protocol limits).

The test system of assay [2] is MDA-MB-231 human breast cancer cells. Nature of the assay: Tumor volume in MDA-MB-231 tumor-bearing mice. Particulars: 5-FU alone 30 mg/kg TIW vs vehicle control. As for the experimental part: as §1
MDA-MB-231 human breast cancer Cells (5×10^6) in PBS buffer were implanted subcutaneously on the right flank of each mouse. Once tumors were detectable, palpable and measurable, the primary tumor volumes were measured and recorded every 3 or 4 days. Tumor volume was calculated as ½×L×W^2, where L is the length and W is the width. […] Subjects were terminated from the study when the tumor volume reached approximately 1500 mm^3 or the body weight loss was greater than 20% (IACUC protocol limits).

The test system of assay [3] is CT26 mouse colon carcinoma. As to the kind of experiment: Tumor volume / TGI in CT26 mice. The settings on record: 5-FU alone 50 mg/kg IV QW. On the procedure:
Immunocompetent, female Balb/C […] mice (ages 6-8 weeks) were ordered and received from National Laboratory Animal Center. Animals were housed on irradiated corncob bedding in micro-isolator caging. Fluorescent lighting was provided on a 12-hour cycle under temperature (20-23° C.) and humidity control (30-70%). Rodent feed and autoclaved acidified water (pH 2.5-3) were provided ad libitum.
CT26 is an N-nitroso-N-methylurethane-(NNMU) induced, undifferentiated mouse colon carcinoma cell line. CT26 carcinoma cells were grown in McCoy's 5a culture medium supplemented with 10% (v/v) FBS and 1% PSN antibiotic mixture. The cells were maintained in an incubator with a humidified environment of 5% CO^2 at 37° C. in a 175 cm 2 flask and subcultured 2-3 times each week. On the study day, CT26 cells were thawed and prepared for inoculation into mice. Cells were washed in PBS, counted, and resuspended in cold PBS at concentrations of 2×10^6 viable cells/0.1 ml. […]
Animals were monitored weekly for palpable tumors or any changes in appearance or behavior. Once tumors were palpable, they were measured using calipers. Tumor volume was calculated using the following equation ½(4π/3)(L/2)(W/2)H, where L is the length, W is the width, and H is the height of the tumor. […] Data were expressed as mean±SEM.

For the compound `O=c1[nH]cc(F)c(=O)[nH]1` [5-FU, 5-fluorouracil], the “TGI (tumor growth inhibition rate)” value is on record as around 60% in assay [1] (D21) and around 45% in assay [1] (D28). Further, the tumor growth entry in assay [1] (HT-29 tumor-bearing mice, 5-FU alone 50 mg/kg QW vs vehicle control) was “did not reduce tumor growth”; in assay [2], “did reduce tumor growth”. Besides, the TGI rate entry in assay [3] was “approximately 70%”.

For the origin of these results see patent publication US20240050579A1, “HYALURONAN-NIMESULIDE CONJUGATE FOR TREATING LOCALLY ADVANCED OR METASTATIC TUMORS” (Aihol Corporation, priority 2022, published 2024).
